Assay results: article PMC6631223, “Chain-Branched Polyhydroxylated Octahydro-1H-Indoles as Potential Leads against Lysosomal Storage Diseases” (Pharmaceuticals, 2019)

What was measured:
Type in all cases: biochemical
[1] = target: T1, α-Glucosidase (yeast) (Saccharomyces cerevisiae, UniProt P53341); assay: Glycosidase inhibition: α-glucosidase (yeast)
T1 construct: purchased Sigma-Aldrich Co
Excerpt: (§1) The enzymes α-glucosidase (from yeast, rice), β-glucosidase (from almonds, bovine liver), α-galactosidase (from coffee beans), β-galactosidase (from bovine liver), α-mannosidase (from jack beans), β-mannosidase (from snails), α-L-fucosidase (from bovine kidney), α-L-rhamnosidase (from Penicillium decumbens), β-glucuronidases (from Escherichia coli), α,α-trehalase (from porcine kidney), amyloglucosidase (from Aspergillus niger), p-nitrophenyl glycosides, and various disaccharides were purchased from Sigma-Aldrich Co. Brush border membranes were prepared from the rat small intestine according to the method of Kessler et al., and were assayed at pH 6.8 for rat intestinal maltase using maltose. For rat intestinal glucosidases and porcine kidney trehalase activities, the reaction mixture (0.2 mL) contained 25 mM substrate and the appropriate amount of enzyme, and the incubations were performed for 10 min at 37 °C. The reaction was stopped by heating at 100 °C for 3 min. After centrifugation (600 g; 10 min), 0.035 mL of the resulting reaction mixture were added to 2.1 mL of the Glucose CII-test Wako (Wako Pure Chemical Ind., Osaka, Japan). The absorbance at 505 nm was measured to determine the amount of the released D-glucose. Other glycosidase activities were determined using an appropriate p-nitrophenyl glycoside as substrate at the optimum pH of each enzyme. The reaction mixture (0.2 mL) contained 2 mM of the substrate and the appropriate amount of enzyme. The reaction was stopped by adding 0.4 mL of 400 mM Na2CO3. The released p-nitrophenol was measured spectrometrically at 400 nm.

[2] = target: T2, α-Glucosidase (rice) (Oryza sativa subsp. japonica, UniProt Q653V7); assay: Glycosidase inhibition: α-glucosidase (rice)
T2 construct: purchased Sigma-Aldrich Co
Excerpt: as §1

[3] = target: T3, α-L-Fucosidase (bovine kidney) (Bos taurus, UniProt Q2KIM0); assay: Glycosidase inhibition: α-L-fucosidase (bovine kidney); details: α-L-fucosidase, bovine kidney
T3 construct: purchased Sigma-Aldrich Co; host or cells: bovine kidney
T3 sequence (Q2KIM0 23-468): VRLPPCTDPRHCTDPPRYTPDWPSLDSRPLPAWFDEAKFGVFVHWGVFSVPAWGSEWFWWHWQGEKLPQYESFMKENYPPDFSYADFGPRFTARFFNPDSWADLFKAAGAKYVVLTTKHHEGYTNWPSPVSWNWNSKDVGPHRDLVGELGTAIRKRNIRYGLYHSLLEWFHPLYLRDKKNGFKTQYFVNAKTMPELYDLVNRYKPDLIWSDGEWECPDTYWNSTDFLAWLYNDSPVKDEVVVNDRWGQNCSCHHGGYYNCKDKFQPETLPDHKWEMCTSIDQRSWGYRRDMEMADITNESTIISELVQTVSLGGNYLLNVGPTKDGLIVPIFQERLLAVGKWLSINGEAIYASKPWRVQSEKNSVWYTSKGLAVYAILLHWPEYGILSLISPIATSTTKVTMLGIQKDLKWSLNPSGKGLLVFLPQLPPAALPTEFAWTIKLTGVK
Excerpt: as §1

[4] = target: T4, α-Galactosidase (coffee beans) (Coffea arabica, UniProt Q42656); assay: Glycosidase inhibition: α-galactosidase (coffee beans); details: α-galactosidase, coffee beans
T4 construct: purchased Sigma-Aldrich Co
Excerpt: as §1

[5] = target: T5, Amyloglucosidase (Aspergillus niger, UniProt P69328); assay: Glycosidase inhibition: amyloglucosidase (Aspergillus niger)
T5 construct: purchased Sigma-Aldrich Co
Excerpt: as §1

[6] = target: T6, β-Glucronidase (E.coli) (Escherichia coli, UniProt P05804); assay: Glycosidase inhibition: β-glucuronidase (E. coli)
T6 construct: purchased Sigma-Aldrich Co
Excerpt: as §1

[7] = target: β-Mannosidase (snail); assay: Glycosidase inhibition: β-mannosidase (snail)
Excerpt: as §1

[8] = target: β-Glucosidase (almond); assay: Glycosidase inhibition: β-glucosidase (almond)
Excerpt: as §1

[9] = target: T7, Lactase (β-Galactosidase) (Rattus norvegicus, UniProt Q02401); assay: Glycosidase inhibition: lactase; details: lactase
T7 construct: Brush border membranes were prepared from the rat small intestine; from tissue; host or cells: rat small intestine brush border membranes (inferred)
T7 sequence (Q02401 868-1928): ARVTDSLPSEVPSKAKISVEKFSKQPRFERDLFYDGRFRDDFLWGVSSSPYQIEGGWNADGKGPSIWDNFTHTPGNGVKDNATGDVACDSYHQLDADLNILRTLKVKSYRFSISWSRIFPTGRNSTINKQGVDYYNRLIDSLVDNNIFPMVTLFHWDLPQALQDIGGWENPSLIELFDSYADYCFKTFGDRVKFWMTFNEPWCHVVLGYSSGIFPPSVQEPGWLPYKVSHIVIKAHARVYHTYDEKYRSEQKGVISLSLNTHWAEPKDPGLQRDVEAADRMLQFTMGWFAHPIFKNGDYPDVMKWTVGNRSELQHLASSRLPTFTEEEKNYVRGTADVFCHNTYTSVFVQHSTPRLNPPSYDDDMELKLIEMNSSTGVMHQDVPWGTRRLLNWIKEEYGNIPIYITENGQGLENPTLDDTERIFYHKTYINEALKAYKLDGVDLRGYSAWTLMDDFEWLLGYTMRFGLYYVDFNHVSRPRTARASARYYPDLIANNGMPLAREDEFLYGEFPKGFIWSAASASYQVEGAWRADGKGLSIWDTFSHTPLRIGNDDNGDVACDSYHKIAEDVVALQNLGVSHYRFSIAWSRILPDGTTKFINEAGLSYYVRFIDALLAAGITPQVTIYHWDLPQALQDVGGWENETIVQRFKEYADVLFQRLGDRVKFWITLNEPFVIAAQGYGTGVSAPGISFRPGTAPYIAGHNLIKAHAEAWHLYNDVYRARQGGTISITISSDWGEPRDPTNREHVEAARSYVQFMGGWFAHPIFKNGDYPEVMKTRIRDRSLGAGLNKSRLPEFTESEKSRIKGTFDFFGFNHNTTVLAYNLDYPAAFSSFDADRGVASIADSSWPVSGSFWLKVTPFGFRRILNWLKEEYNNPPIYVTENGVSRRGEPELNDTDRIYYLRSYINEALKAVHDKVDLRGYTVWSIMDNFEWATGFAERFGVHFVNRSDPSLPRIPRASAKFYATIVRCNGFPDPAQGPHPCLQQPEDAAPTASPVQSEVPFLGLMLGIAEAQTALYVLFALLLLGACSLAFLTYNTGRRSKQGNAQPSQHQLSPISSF
Excerpt: as §1

[10] = target: Rat intestinal maltase; assay: Glycosidase inhibition: rat intestinal maltase; details: maltose, pH 6.8
Excerpt: as §1

T4 sequence (Q42656 16-378): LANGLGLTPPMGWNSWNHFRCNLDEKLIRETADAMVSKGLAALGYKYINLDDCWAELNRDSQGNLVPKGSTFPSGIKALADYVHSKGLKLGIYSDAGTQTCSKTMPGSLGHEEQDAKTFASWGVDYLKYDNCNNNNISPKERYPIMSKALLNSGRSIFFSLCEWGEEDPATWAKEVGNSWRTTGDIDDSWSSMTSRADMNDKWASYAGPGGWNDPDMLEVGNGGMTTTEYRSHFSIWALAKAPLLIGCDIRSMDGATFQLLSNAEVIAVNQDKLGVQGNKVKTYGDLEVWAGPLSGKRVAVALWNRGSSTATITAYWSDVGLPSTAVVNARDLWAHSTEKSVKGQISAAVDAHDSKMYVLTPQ
T2 sequence (Q653V7 34-885): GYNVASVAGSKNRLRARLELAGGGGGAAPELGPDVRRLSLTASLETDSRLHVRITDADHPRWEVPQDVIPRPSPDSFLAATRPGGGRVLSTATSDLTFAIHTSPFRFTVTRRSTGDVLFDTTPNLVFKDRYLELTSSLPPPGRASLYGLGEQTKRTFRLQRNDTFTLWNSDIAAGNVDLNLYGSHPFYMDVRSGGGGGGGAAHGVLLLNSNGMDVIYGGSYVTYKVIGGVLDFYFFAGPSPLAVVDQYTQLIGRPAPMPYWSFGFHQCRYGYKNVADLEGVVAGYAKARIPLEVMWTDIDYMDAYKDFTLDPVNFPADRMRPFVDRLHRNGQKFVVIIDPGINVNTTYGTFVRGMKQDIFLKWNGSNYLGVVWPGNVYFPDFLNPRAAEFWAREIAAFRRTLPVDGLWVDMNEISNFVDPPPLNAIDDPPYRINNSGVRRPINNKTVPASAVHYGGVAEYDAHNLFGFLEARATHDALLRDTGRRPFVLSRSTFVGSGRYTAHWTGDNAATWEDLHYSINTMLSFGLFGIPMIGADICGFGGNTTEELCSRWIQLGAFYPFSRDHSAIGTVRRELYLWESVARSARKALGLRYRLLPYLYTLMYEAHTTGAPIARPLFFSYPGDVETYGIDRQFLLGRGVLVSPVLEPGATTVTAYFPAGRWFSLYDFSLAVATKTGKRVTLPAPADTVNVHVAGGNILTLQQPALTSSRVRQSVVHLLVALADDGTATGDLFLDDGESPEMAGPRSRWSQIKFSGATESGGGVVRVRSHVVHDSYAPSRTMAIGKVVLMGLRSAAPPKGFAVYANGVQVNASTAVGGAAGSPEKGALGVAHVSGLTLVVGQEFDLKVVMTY
T6 sequence (P05804 whole entry): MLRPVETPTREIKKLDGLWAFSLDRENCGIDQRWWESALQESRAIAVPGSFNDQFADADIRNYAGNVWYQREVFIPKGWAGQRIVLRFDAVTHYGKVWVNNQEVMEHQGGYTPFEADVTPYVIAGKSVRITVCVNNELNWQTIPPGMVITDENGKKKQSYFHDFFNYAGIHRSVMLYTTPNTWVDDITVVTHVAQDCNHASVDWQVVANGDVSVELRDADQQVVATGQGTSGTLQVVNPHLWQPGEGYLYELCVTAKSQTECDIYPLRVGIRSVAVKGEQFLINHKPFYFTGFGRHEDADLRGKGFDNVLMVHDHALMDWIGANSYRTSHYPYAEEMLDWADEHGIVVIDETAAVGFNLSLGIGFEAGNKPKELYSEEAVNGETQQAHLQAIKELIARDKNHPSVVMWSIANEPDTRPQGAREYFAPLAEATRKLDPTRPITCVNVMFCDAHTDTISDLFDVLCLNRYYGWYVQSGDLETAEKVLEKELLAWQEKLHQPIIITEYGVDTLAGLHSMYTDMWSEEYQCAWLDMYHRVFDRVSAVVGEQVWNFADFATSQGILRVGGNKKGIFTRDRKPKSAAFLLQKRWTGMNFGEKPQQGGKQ
T5 sequence (P69328 25-640): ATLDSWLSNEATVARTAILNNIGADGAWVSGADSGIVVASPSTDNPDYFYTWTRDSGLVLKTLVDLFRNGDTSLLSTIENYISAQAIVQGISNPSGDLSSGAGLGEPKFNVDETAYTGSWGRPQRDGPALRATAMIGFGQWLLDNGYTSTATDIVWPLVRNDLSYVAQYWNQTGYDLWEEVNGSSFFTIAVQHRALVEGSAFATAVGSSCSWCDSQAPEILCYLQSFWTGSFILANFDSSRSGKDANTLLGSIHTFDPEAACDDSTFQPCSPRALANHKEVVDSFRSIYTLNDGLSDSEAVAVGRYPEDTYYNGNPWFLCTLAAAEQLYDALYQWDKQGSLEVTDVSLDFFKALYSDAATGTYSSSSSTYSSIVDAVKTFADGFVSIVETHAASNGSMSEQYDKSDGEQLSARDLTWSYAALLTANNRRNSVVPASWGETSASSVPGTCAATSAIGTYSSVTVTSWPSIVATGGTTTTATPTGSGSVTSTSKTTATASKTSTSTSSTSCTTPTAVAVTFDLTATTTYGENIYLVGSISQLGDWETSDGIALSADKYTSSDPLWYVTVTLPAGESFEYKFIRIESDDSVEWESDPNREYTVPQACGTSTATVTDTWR
T1 sequence (P53341 whole entry): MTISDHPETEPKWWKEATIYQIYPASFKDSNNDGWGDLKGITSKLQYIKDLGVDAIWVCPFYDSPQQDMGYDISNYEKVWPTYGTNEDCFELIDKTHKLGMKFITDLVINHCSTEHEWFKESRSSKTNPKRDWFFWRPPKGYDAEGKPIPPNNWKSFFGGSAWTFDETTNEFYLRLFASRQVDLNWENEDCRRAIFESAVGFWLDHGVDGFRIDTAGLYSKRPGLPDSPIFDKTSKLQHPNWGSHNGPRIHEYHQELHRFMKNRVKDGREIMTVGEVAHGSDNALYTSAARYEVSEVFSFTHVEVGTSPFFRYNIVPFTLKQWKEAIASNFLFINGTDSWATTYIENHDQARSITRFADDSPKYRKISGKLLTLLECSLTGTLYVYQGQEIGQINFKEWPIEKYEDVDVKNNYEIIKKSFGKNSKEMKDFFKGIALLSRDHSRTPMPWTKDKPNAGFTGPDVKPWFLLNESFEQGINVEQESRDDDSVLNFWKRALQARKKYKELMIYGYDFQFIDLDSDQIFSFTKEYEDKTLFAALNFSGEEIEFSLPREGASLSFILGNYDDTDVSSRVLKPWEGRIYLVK

OCCN1C[C@H](O)[C@@H](O)[C@H](O)[C@H]1CO [Miglitol, miglitol, reference compound]
IC50 [1]: 70 µM
IC50 [2]: 0.17 µM
IC50 [3]: > 1000 µM
IC50 [4]: > 1000 µM
IC50 [5]: > 1000 µM
IC50 [6]: > 1000 µM
IC50 [7]: > 1000 µM
IC50 [8]: > 1000 µM
IC50 [9]: > 1000 µM
IC50 [10]: > 1000 µM
